Results as given in publication PMC12472577, “Trimetazidine–Profen Hybrid Molecules: Synthesis, Chemical Characterization, and Biological Evaluation of Their Racemates” (Pharmaceuticals, 2025).
“And” between values parts separate entries of the source, which are not always exact repeats. Equal values may be shown once. Read-outs that look alike come from different tables or passages of the source. Each block holds one compound with its values, some of them ahead of it.

Assays:
[1] = Hydroxyl radical scavenging activity (HRSA), Fenton reaction / 1,10-phenanthroline; format: biochemical; conditions: IC50 ± SD, triplicate; 60 min at 37 °C, pH 7.40
Method: The hydroxyl radical-scavenging activity of the samples was measured according to the method of Luo et al.. In this system, hydroxyl radicals were generated by the Fenton reaction. Hydroxyl radicals could oxidize Fe^2+ into Fe^3+, and only Fe^2+ could be combined with 1,10-phenanthroline to form a red compound (1,10-phenanthroline-Fe^2+) with a maximum absorbance at 536 nm. The concentration of the hydroxyl radical was reflected by the degree of decolorization of the reaction solution. In test tubes 1 mL of 1,10-phenanthroline solution (0.75 mM), 2.0 mL of phosphate buffer saline (0.2 M, pH 7.40), and 1 mL of the samples/standard were added and mixed homogeneously. A total of 1.0 mL of the FeSO4 solution (0.75 mM) was then pipetted into the mixture. The reaction was initiated by adding 1.0 mL H2O2 (0.03% v/v). After incubation at 37°C for 60 min in a water bath, the absorbance of the reaction mixture was measured at 536 nm against reagent blank. The reaction mixture without any antioxidant was used as the negative control, and without H2O2 was used as the blank. The hydroxyl radical scavenging activity (HRSA) was calculated by the following formula:(2) I,%(HRSA)=AS−An/Ab−An×100 where As, An, and Ab were the absorbance values determined at 536 nm of the sample, the negative control, and the blank after reaction, respectively.

[2] = Hydrogen peroxide scavenging activity (HPSA); format: biochemical; conditions: IC50 ± SD, triplicate; 10 min at 37 °C, pH 7.4
Method: The Manolov et al. approach was used to evaluate a capacity to scavenge hydrogen peroxide. A 43 mM solution of H2O2 was prepared in a potassium phosphate buffer solution (0.2 M, pH 7.4). The analysis of the samples was carried out as follows: in test tubes, 0.6 mL H2O2 (43 mM), 1 mL sample/standard with different concentrations (20–1000 µg/mL), and 2.4 mL potassium phosphate buffer solution were mixed. The mixture was stirred and incubated in the dark for 10 min at 37 °C. Absorbance was measured at 230 nm with a spectrophotometer (CamSpec M508, Leeds, UK) against a blank solution containing the phosphate buffer and H2O2 without the sample. […] The percentage HPSA of the samples was evaluated by comparing with a blank sample, and was calculated using the following formula:(1) I,%(HPSA)=Ablank−(ATS−ACS)/Ablank×100 where Ablank is the absorbance of the blank sample, ACS is the absorbance of the control sample, and ATS is the absorbance of the test sample.

[3] = Acute rat toxicity prediction using GUSAR software
From the text: Given the potential toxicity concerns associated with both trimetazidine and profens, including rare gastrointestinal, hepatic, renal, and central nervous system effects, we evaluated the acute toxicity of the newly synthesized trimetazidine–profen hybrid molecules.
GUSAR software was developed to generate QSAR/QSPR models using appropriate training datasets. It enables an in silico prediction of LD50 values in rats for four routes of administration: oral, intravenous, intraperitoneal, and subcutaneous.
We employed the software to perform quantitative in silico predictions of the LD50 values for the synthesized trimetazidine–profen hybrids 3a–e.

[4] = Lipophilicity as RM values by reversed-phase thin-layer chromatography (RP-TLC); format: physicochemical
Method: In this study, the lipophilicity of the synthesized trimetazidine–profen derivatives was evaluated using a practical and widely applied technique—reversed-phase thin-layer chromatography (RP-TLC)—following the methodology outlined by Pontiki and Hadjipavlou-Litina.
The lipophilicity of the trimetazidine–profen derivatives was determined following the procedure described by Pontiki and Hadjipavlou-Litina.

human albumin = target: T1, human albumin (Homo sapiens, UniProt P02768); assay: Inhibition of albumin denaturation (IAD); format: biochemical
T1 construct: purchased BB-NCIPD Ltd., Sofia, Bulgaria
Method: The in vitro analysis of the anti-inflammatory activity was evaluated by measuring the inhibition of albumin denaturation (IAD). The analysis was carried out according to the method of Manolov et al. with minor modifications. The experiment was conducted using human albumin. A 1% albumin solution was prepared in distilled water at pH 7.4. Test samples and standards were initially dissolved in 1 mL of DMSO, then supplemented with 1% Tween 80 in PBS to achieve a final stock solution concentration of 1000 μg/mL. Subsequently, a series of working solutions at varying concentrations (20–500 μg/mL) in 1% Tween 80/PBS were prepared. The reaction mixture consisted of 2 mL of the test sample or standard at varying concentrations and 1 mL of 1% albumin. The mixture was incubated at 37 °C for 15 min, followed by heating at 70 °C for 15 min in a water bath. After cooling, the turbidity was measured at 660 nm using a spectrophotometer (CamSpec M508, Leeds, UK). Ibuprofen served as the standard. The experiment was conducted in triplicate. The percentage inhibition of albumin denaturation (IAD) was calculated against the control. The control sample consisted of albumin at the same concentration dissolved in distilled water.(3) %IAD=Ablank−Asample/Ablank×100

[5] = composite across IP, IV, oral, SC GUSAR predictions, lower = more toxic, read-out: geometric mean of the four LD50 values

T1 sequence (P02768 25-609): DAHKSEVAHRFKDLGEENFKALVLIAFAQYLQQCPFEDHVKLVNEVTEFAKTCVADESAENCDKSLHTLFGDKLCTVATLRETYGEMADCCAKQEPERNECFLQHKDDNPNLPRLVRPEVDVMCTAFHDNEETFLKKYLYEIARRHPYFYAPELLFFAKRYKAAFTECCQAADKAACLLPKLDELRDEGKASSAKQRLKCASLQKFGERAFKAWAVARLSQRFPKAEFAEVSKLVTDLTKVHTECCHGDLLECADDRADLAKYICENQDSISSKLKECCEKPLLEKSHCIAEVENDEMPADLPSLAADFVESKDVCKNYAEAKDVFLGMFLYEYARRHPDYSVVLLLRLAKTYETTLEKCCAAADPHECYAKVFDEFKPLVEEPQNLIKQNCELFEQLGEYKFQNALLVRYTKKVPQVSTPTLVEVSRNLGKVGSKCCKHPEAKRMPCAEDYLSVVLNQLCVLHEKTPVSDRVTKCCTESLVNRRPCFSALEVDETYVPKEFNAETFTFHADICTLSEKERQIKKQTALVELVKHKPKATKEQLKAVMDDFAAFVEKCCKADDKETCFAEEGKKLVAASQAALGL

SMILES: COc1ccc(CN2CCN(C(=O)C(C)c3ccc(CC(C)C)cc3)CC2)c(OC)c1OC (stereo not drawn) [3a, 2-(4-isobutylphenyl)-1-(4-(2,3,4-trimethoxybenzyl)piperazin-1-yl)propan-1-one]
HRSA IC50 [1]: 77.98 µg/mL | HPSA IC50 [2]: 97.55 ± 1.21 µg/mL | LD50 [3, 5]: ~212 mg/kg | RM ± SD [4]: 1.68 ± 0.021 and 1.68 | IC50 (human albumin): 244 µM

SMILES: COc1ccc(CN2CCNCC2)c(OC)c1OC [compound 1, 1-[(2,3,4-trimethoxyphenyl)methyl]piperazine, reference compound]
LD50 [3]: ~246 mg/kg

SMILES: COc1ccc(CN2CCN(C(=O)C(C)c3ccc4c(c3)[nH]c3ccc(Cl)cc34)CC2)c(OC)c1OC (stereo not drawn) [3e, 2-(6-chloro-9H-carbazol-2-yl)-1-(4-(2,3,4-trimethoxybenzyl)piperazin-1-yl)propan-1-one]
HRSA IC50 [1]: 92.56 µg/mL | HPSA IC50 [2]: 99.75 ± 0.75 µg/mL | LD50 [3, 5]: ~369 mg/kg | RM ± SD [4]: 1.55 ± 0.016 and 1.55 | IC50 (human albumin): 225 µM

SMILES: COc1ccc(CN2CCN(C(=O)C(C)c3ccc(-c4ccccc4)c(F)c3)CC2)c(OC)c1OC (stereo not drawn) [3d, 2-(2-fluoro-[1,1’-biphenyl]-4-yl)-1-(4-(2,3,4-trimethoxybenzyl)piperazin-1-yl)propan-1-one]
HRSA IC50 [1]: 74.59 ± 1.02 µg/mL and 74.6 to 74.7 µg/mL | HPSA IC50 [2]: 135.25 ± 13.19 µg/mL | LD50 [3, 5]: ~287 mg/kg | RM ± SD [4]: 1.45 ± 0.008 and 1.45 | IC50 (human albumin): 235 µM

SMILES: COc1ccc2cc(C(C)C(=O)N3CCN(Cc4ccc(OC)c(OC)c4OC)CC3)ccc2c1 (stereo not drawn) [3c, 2-(6-methoxynaphthalen-2-yl)-1-(4-(2,3,4-trimethoxybenzyl)piperazin-1-yl)propan-1-one]
HRSA IC50 [1]: 71.13 µg/mL | HPSA IC50 [2]: 93.07 ± 0.43 µg/mL | LD50 [3, 5]: ~391 mg/kg | RM ± SD [4]: 1.61 ± 0.020 and 1.61 | IC50 (human albumin): 227 µM

SMILES: COc1ccc(CN2CCN(C(=O)C(C)c3cccc(C(=O)c4ccccc4)c3)CC2)c(OC)c1OC (stereo not drawn) [3b, 2-(3-benzoylphenyl)-1-(4-(2,3,4-trimethoxybenzyl)piperazin-1-yl)propan-1-one]
HRSA IC50 [1]: 74.72 ± 0.41 µg/mL and 74.6 to 74.7 µg/mL | HPSA IC50 [2]: 93.56 ± 1.29 µg/mL | LD50 [3, 5]: ~398 mg/kg | RM ± SD [4]: 1.55 ± 0.015 and 1.55 | IC50 (human albumin): 234 µM

RM ± SD [4]: 1.11 ± 0.01
SMILES: CC(C)Cc1ccc(C(C)C(=O)O)cc1 (stereo not drawn) [Ibuprofen, reference compound]
